The structures appear in SMILES notation. Where a name gives a salt, the structure may show the parent alone.

One may read the EC50 as the midpoint of the concentration-response curve.

For data set [1] the following is noted: mouse, in vivo. As to the method: With respect to skin pigmentation—which is an off-target effect of MC4R agonist, the distribution and accumulation of the drug were evaluated by measuring the drug concentration in the skin and plasma after repeated administration in a db/db mouse model lacking leptin receptor.
Data set [2] concerns the target T1, MC4R (Homo sapiens, UniProt P32245). The data set is described as follows: cAMP Hunter Gs-coupled cAMP assay (CHO-K1 cell line), MC4R. Type of data set: cell-based. The arrangement: expressed in transfected cells; host or cells: CHO-K1 (cAMP Hunter Gs-coupled cell line). As to the method: (§1) After cAMP Hunter Gs-coupled cell lines (CHO-K1 cell line) in which each of MC1R and MC4R was overexpressed were established so that the increase in the cAMP level in cells due to agonist reaction was measurable, the cells were inoculated into each well of a white cell culture plate and incubated for 24 hours in a 37° C. incubator in the presence of 5% CO2. After the incubation, the medium was removed, and 15 μL of a 2:1 HBBS/10 mM HEPES:cAMP XS+Ab reagent was added. After 5 μL of the sample diluted 4 times with buffer was added, the vehicle concentration was set to 1%, and the MC4R agonist compound diluted at each step concentration was added, followed by reaction at 37° C. for 30 minutes. The activity (%) of each agonist compound is expressed as 100%×(average RLU value of sample−average RLU value of vehicle control)/(average RLU value of max control−average RLU value of vehicle control), and the value was analyzed by CBIS data analysis suite (ChemInnovation, CA).
Target sequence in this assay (P32245 whole entry): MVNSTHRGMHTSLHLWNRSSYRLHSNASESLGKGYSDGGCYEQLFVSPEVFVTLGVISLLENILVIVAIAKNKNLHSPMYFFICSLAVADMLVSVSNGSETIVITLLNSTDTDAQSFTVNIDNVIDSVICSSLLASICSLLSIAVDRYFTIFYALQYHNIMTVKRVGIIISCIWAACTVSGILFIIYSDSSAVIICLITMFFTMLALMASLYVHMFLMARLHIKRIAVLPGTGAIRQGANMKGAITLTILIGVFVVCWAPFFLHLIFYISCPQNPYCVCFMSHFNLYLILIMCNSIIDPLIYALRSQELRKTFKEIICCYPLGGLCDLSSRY

Data set [3] deals with T2, melanocortin-4 receptor (MC4R) (Homo sapiens, UniProt P32245).
T2 construct: expressed in transfected cells
T2 sequence (P32245 whole entry): as above
Briefly: Luciferase assay (CRE-LUC), HEK MC4R-Luc cells. Type of data set: cell-based.

Data set [4] deals with T1, MC4R. The data set is described as follows: Binding affinity, membranes of HEK-293 cell lines expressing MC4R. More on the design: expressed in transfected cells. The procedure: After the CHO-K1 cell line expressing human recombinant MC1R and the HEK-293 cell lines expressing MC4R were established, membranes were collected from each cell line. In a 96-well cell culture plate, the cell line membrane and 25 mM HEPES-KOH adsorption buffer (pH 7.0) containing the MCR agonist diluted at each step concentration were added, and the reaction was carried out. EC50 was calculated as a concentration that induces 50% of the maximum binding that can be induced by each agonist, and the results are represented in Table 2.
Target sequence in this assay (P32245 whole entry): as above

Data set [5] has as its target T3, MC1R (Homo sapiens, UniProt Q01726). Briefly: Binding affinity, membranes of CHO-K1 cell line expressing human recombinant MC1R. More on the design: expressed in transfected cells; host or cells: CHO-K1 (membranes). The following applies: 25 mM HEPES-KOH buffer pH 7.0. The procedure:
In a 96-well cell culture plate, the cell line membrane and 25 mM HEPES-KOH adsorption buffer (pH 7.0) containing the MCR agonist diluted at each step concentration were added, and the reaction was carried out.
Target sequence in this assay (Q01726 whole entry): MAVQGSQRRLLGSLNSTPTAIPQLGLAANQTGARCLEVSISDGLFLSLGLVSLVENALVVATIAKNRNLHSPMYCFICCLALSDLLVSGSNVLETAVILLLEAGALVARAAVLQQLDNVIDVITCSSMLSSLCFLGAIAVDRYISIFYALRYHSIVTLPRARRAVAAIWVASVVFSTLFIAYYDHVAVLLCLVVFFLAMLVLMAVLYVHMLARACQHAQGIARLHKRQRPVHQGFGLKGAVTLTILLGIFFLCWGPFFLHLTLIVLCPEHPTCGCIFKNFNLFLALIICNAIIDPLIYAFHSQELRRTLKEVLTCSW

Data set [6] deals with T1, MC4R. The data set is described as follows: Pathhunter eXpress β-arrestin assay (U2OS cell line), MC4R. Type of data set: cell-based. The arrangement: expressed in transfected cells; host or cells: U2OS (Pathhunter eXpress β-arrestin cell line). The source says:
(§2) A Pathhunter eXpress β-arrestin cell line (U2OS cell line) in which Prolink (PK)-tagged MC1R and MC4R, and enzyme acceptor (EA)-tagged β-arrestin were expressed together was established. When the MCR-PK portion of this cell line is activated, β-arrestin-EA is mobilized, and enzyme acceptor (EA) and Prolink (PK), which are the β-galactosidase enzyme fragments, interact. The activated enzyme hydrolyzes the substrate by β-galactosidase activity to produce a chemiluminescent signal, so that the activity can be measured. After the Pathhunter eXpress β-arrestin cell line (U2OS cell line) was incubated, the cells were inoculated into each well of the cell culture plate and incubated for 48 hours in a 37° C. incubator in the presence of 5% CO2. After the incubation, 5 μL of the sample diluted 5 times with buffer was added, the vehicle concentration was set to 1%, and the MC4R agonist compound diluted at each step concentration was added, followed by reaction at 37° C. for 90 minutes. The activity (%) of each agonist compound is expressed as 100%×(average RLU value of sample−average RLU value of vehicle control)/(average maximum value of control ligand−average RLU value of vehicle control), and the value was analyzed by CBIS data analysis suite (ChemInnovation, CA).
Target sequence in this assay (P32245 whole entry): as the sequence (P32245 whole entry) above
Target sequence in this assay (P32121 whole entry partner): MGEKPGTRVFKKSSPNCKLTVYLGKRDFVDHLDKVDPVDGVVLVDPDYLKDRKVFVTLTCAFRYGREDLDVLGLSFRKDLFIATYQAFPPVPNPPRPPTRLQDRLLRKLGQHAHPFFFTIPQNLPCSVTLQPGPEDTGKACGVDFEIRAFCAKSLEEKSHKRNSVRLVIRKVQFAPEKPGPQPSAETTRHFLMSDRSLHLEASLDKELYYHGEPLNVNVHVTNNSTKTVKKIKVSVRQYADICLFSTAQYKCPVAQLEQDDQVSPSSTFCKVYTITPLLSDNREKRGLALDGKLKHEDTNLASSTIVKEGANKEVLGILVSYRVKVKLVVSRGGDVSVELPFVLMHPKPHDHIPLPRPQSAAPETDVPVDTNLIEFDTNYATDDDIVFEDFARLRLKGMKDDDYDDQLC

Data set [7] concerns skin and skin hair pigmentation. Briefly: Skin pigmentation in repeated toxicity test in monkeys. The following applies: repeatedly administered for 2 weeks, FIG. 2. Type of data set: in vivo. As to the method: In order to confirm the possibility of occurrence of skin pigmentation—which is an off-target effect of MC4R agonist, pigmentation patterns in the skin and skin hair were measured in a repeated toxicity test in monkeys, and the results are represented in FIG. 2.

The target in data set [8] is T3, MC1R. The data set is described as follows: Pathhunter eXpress β-arrestin assay (U2OS cell line), MC1R. Type of data set: cell-based. The arrangement: expressed in transfected cells; host or cells: U2OS (Pathhunter eXpress β-arrestin cell line). The following applies: 90 minutes at 37° C.
Description: as §2
Target sequence in this assay (Q01726 whole entry): as the sequence (Q01726 whole entry) above
Target sequence in this assay (P32121 whole entry partner): as the sequence (P32121 whole entry partner) above

The target of data set [9] is T4, melanocortin-1 receptor (MC1R) (Homo sapiens, UniProt Q01726).
T4 construct: expressed in transfected cells
T4 sequence (Q01726 whole entry): as the sequence (Q01726 whole entry) above
Briefly: Luciferase assay (CRE-LUC), HEK MC1R-Luc cells. Type of data set: cell-based. The following applies: luminescence relative to 10 μM NDP-α-MSH. As to the method:
In order to measure the agonist ability for melanocortin-1 receptor (MC1R) and melanocortin-4 receptor (MC4R), a cell line that permanently expresses MC1R, MC4R and the luciferase gene (CRE-LUC) under the control of CRE (cAMP response element) was established.
After a mammalian cell expression vector (pCDNA3 (Neo)) (Invitrogen) containing the MC1R and MC4R genes was prepared, human embryonic kidney (HEK) cell lines were transformed by using Lipofectamine 2000 (Invitrogen) together with a vector (pCRE-Luc)(Stratagen) expressing a luciferase gene (CRE-LUC) under the control of a cAMP response element (CRE). […] Each well was treated with 50 μL of a Bright-Glo luciferase reagent (Promega) and left at room temperature for 15 minutes, and then the luminescence of each well was measured by using a luminometer (Victor).
HEK MC1R-Luc cells and HEK MC4R-Luc cells were added to each well of a 96-well luminometer cell culture plate (Costar) to a size of 2.5×10^4 cells in 100 μL of a culture medium and then incubated in a 37° C. incubator in the presence of 6% CO2 for 18 hours. […] Each well was treated with 50 μL of a Bright-Glo luciferase reagent (Promega) and left at room temperature for five minutes, and then the luminescence of each well was measured by using a luminometer (Victor). […] The measurements were measured using statistical software (Prizm).

In data set [10] the target is T3, MC1R. Briefly: cAMP Hunter Gs-coupled cAMP assay (CHO-K1 cell line), MC1R. Type of data set: cell-based. The arrangement: expressed in transfected cells; host or cells: CHO-K1 (cAMP Hunter Gs-coupled cell line). The following applies: 30 minutes at 37° C. As to the method:
as §1
Target sequence in this assay (Q01726 whole entry): as above
For orientation: Cyclic AMP is a second messenger, typically raised through Gs and lowered through Gi signalling.

Another data set relates to skin pigmentation. The following applies: reported, Clement et al., Nature Medicine, 2018; cited from earlier work.
Setting [11] is: ratio of EC50 in MC1R to EC50 in MC4R.

For the molecule `CC(C)C(=O)N([C@H]1C[C@@H](C(=O)N2CCOCC2)N(C(=O)[C@@H]2CN(C(C)(C)C)C[C@H]2c2ccc(Cl)cc2)C1)[C@H]1CC[C@@H](C)CC1.Cl` [Test Compound, N-((3S,5S)-1-((3S,4R)-1-(tert-butyl)-4-(4-chlorophenyl)pyrrolidine-3-carbonyl)-5-(morpholine-4-carbonyl)pyrrolidin-3-yl)-N-((1s,4R)-4-methylcyclohexyl)isobutyramide hydrochloride], in data set [1], the “Accumulation of drug in the skin” value is given as “did not relatively accumulate in the skin”. Also, the EC50 on MC4R [2] (CHO-K1 cell line, 30 minutes at 37° C.) worked out at 16.3 nM; in data set [3] (HEK MC4R-Luc cells, luminescence relative to 10 μM NDP-α-MSH), 0.434 nM; at MC4R [4] (HEK-293 membranes, 25 mM HEPES-KOH buffer pH 7.0) it was 62 nM; at MC1R [5] it was 310 nM; at MC4R [6] (U2OS cell line, 90 minutes at 37° C.), 5.14 nM; on MC1R [8], 195 nM. In addition, the half-maximal effective concentration (EC50) in data set [9] turned out to be 2.5 nM; at MC1R [10], 84.8 nM. Further, the “Ratio MC1R/MC4R (cAMP)” value on MC4R [2] (setting [11]) is 5.21. In addition, the “Ratio MC1R/MC4R (Luciferase)” value in data set [3] (setting [11]) came out at 5.76. For the same molecule, the “Ratio MC1R/MC4R (Binding)” value on MC4R [4] (setting [11]) is listed as 5.00. The “Ratio MC1R/MC4R (β-Arrestin)” value at MC4R [6] (setting [11]) stood at 37.98. The “Pigmentation on the skin and skin hair” value in data set [7] is “pigmentation did not appear on the skin and skin hair”.
In the case of `CC(=O)N[C@@H](CCCNC(=N)N)C(=O)N[C@H]1CSSC[C@@H](C(N)=O)NC(=O)[C@H](Cc2c[nH]c3ccccc23)NC(=O)[C@H](CCCNC(=N)N)NC(=O)[C@@H](Cc2ccccc2)NC(=O)[C@H](Cc2c[nH]cn2)NC(=O)[C@@H](C)NC1=O` [setmelanotide, Ac-RC[dA]H[dF]RWC-NH2 (disulfide) (AcOH salt)], the “Skin pigmentation in clinical trials” value with skin pigmentation was “show skin pigmentation”.
